pEC50, pKi: −log10 of the molar value. “Also recorded” adds a separate entry of the source.
How the values were obtained:
α-syn = α-syn (Homo sapiens (Human), UniProt P37840); conditions: previously shown; cited from earlier work
PC12 cells [1] = conditions: previously shown; cited from earlier work
[2] = test system: reserpine-induced hypolocomotion in rats; experiment: Reversal of reserpine-induced hypolocomotion in rats; conditions: 10 μMol/kg, ip
Protocol: In this model depletion of catecholamines by reserpine results in catalepsy in rats.
The following commercially available drug was used in the experiment: reserpine hydrochloride (Alfa Aesar). […] The compounds for this study were administered in a volume of 0.1-0.2 mL for subcutaneous administration and 0.5-0.7 ml for interaperitoneal administration into each rat.
In rodent studies, animals were male and female Sprague-Dawley rats from Harlan (Indianapolis, Ind.) weighing 220-225 g unless otherwise specified. Animals were maintained in sawdust-lined cages in a temperature and humidity controlled environment at 22±1° C. and 60±5% humidity, respectively. A 12 h light/dark cycle was maintained, with lights on from 6:00 a.m. to 6:00 p.m. They were group-housed with unrestricted access to food and water. All experiments were performed during the light component.
Reserpine (5.0 mg/kg, sc) was administered 18 h before the injection of drug or vehicle. The rats were placed individually in the chambers for 1 h for acclimatization before administration of the test drugs or vehicle. Immediately after administration of drug or vehicle, animals were individually placed in Opto-Varimex 4 animal activity monitor chamber (Columbus Instruments, Ohio, USA) to start measuring locomotor activity. Locomotion was monitored for 6 h. […] The data were presented as horizontal activity (HACTV). […] The data were analyzed by one-way analysis of variance (ANOVA) followed by Dunnett's post hoc test.

PC12 cells [3] = experiment: MTT cell viability, compounds alone; format: cell-based, rat; conditions: 0.01-30 μM, compared to untreated controls
Protocol: (§1) To investigate the neuroprotection property of the selected target molecules (−)-91b, (−)-95a and (−)-95c against 6-OHDA-induced cytotoxicity, we used dopaminergic rat adrenal Pheochromocytoma PC12 cells. As reported above, treatment of PC12 cells with 6-OHDA at 75 μM for 24 h produced ˜50% loss in cells viability and this concentration was used in subsequent experiments. […] However, (−)-95a produced some incremental toxicity starting at 20 μM dose (FIG. 4B). The potential neuroprotective effects of (−)-91b, (−)-95a and (−)-95c against 6-OHDA-induced toxicity were evaluated next. […] At those concentration both drugs increased cell survival by ˜20% compared to 6-OHDA (75 μM) treated alone (FIGS. 4D and 4F), indicating neuroprotective effect of these drugs. […] This could be due to the fact that the compound by itself produced toxicity to the cells at doses ≥20 μM and the presence of 6-OHDA enhanced the toxicity (FIG. 4B).
PC12 cells (ATCC CRL1721.1, Manassas, Va., USA), a rat adrenal pheochromocytoma cell line, were cultured in T-75 flasks (Greiner Bio One, Frickenhausen, Germany) and maintained in RPMI 1640 medium supplemented with 10% heat inactivated horse serum, 5% fetal bovine serum, 100 U/ml penicillin, and 100 μg/mL streptomycin at 37° C. in 95% air/5% CO2. Stock solutions of (−)-91b, (−)-95a, (−)-95c, and 6-hydroxydopamine (6-OHDA) were prepared in dimethylsulfoxide (DMSO) and aliquots were stored at −20° C. and −80° C., respectively. […]
PC12 cells were plated at 17000 cells/well density in 100 μL of media in 96-well plates and incubated at 37° C. under 5% CO2 atmosphere for 24 h. […] The absorbance was measured on a microplate reader (Biotek Epoch, Winooski, Vt., USA) at 570 nm with background correction performed at 690 nm. Data from at least three experiments were analyzed using GraphPad software (version 6, San Diego, Calif., USA). Cell viability was defined as […] compared to untreated controls.

human DA D3 receptors = human DA D3 receptors (Homo sapiens (Human), UniProt P35462); experiment: [35S]GTPγS binding stimulation, human D3 receptors in CHO cells; format: biochemical
Sequence of human DA D3 receptors (P35462 whole entry): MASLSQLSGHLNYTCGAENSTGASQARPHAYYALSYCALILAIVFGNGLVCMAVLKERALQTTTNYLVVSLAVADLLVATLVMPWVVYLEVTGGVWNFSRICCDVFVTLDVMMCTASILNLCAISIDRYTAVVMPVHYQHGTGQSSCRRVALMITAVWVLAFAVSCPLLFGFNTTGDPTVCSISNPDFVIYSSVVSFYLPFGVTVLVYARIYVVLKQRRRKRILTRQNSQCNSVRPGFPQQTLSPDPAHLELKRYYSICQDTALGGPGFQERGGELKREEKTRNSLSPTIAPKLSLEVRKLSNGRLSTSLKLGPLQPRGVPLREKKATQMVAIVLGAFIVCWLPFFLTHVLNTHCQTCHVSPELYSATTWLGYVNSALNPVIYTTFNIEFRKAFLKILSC

cloned rat D2L receptors = cloned rat D2L receptors (Rattus norvegicus (Rat), UniProt P61169); experiment: [3H]spiroperidol competition binding, rat D2L receptors in HEK-293 cells; conditions: rat D2 in HEK-293 cells; values of Table 3
Sequence of cloned rat D2L receptors (P61169 whole entry): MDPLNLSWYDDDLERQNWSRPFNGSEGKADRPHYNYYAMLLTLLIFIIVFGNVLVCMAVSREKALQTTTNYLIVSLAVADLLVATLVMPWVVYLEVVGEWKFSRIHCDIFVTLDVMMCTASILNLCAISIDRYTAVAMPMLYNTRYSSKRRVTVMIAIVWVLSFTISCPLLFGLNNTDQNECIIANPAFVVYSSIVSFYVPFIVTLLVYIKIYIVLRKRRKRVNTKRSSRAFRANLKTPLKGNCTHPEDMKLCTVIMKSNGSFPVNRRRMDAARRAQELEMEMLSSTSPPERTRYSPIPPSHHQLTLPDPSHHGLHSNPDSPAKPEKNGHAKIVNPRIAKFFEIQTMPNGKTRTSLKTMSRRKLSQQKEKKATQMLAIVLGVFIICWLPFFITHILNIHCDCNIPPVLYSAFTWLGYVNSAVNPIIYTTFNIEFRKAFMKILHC
From the text: (§2) All these procedures were described by us previously.

PC12 cells [4] = experiment: MTT neuroprotection against 6-OHDA-induced toxicity; format: cell-based, rat
Protocol: as §1
PC12 cells (ATCC CRL1721.1, Manassas, Va., USA), a rat adrenal pheochromocytoma cell line, were cultured in T-75 flasks (Greiner Bio One, Frickenhausen, Germany) and maintained in RPMI 1640 medium supplemented with 10% heat inactivated horse serum, 5% fetal bovine serum, 100 U/ml penicillin, and 100 μg/mL streptomycin at 37° C. in 95% air/5% CO2. Stock solutions of (−)-91b, (−)-95a, (−)-95c, and 6-hydroxydopamine (6-OHDA) were prepared in dimethylsulfoxide (DMSO) and aliquots were stored at −20° C. and −80° C., respectively. For all experiments assessing neuroprotective effects of the test compounds, PC12 cells were pretreated with indicated concentrations of (−)-91b, (−)-95a and (−)-95c for 24 h and then treated with 75 μM 6-OHDA for another 24 h. The control cells were treated with above media containing 0.01% DMSO only.
PC12 cells were plated at 17000 cells/well density in 100 μL of media in 96-well plates and incubated at 37° C. under 5% CO2 atmosphere for 24 h. Cells were treated with varying concentrations of the test compounds to determine their direct effect on cell viability. Neuroprotection experiments were conducted by treating cells for 24 h with varying concentrations of (−)-91b, (−)-95a and (−)-95c. Then the drug containing media was replaced with fresh culture media followed by treatment with 75 μM of 6-OHDA alone for an additional 24 h under the same condition. After incubation for 24 h, 5 mg/mL MTT solution (prepared in Dulbecco's phosphate-buffered saline) was added to the cells (to a final concentration of 0.5 mg/mL) and the plates were further incubated at 37° C. in 95% air/5% CO2 atmosphere for 3-4 h to produce dark-blue formazan crystals. Afterward, the plates were centrifuged at 450 g for 10 min and the supernatants were carefully removed. Formazan crystals were dissolved by adding 100 μL of methanol:DMSO (1:1) mixture to each well and shaking gently at 400 rpm for 30 min at room temperature on a Thermomix R shaker (Eppendorf, Hamburg, Germany). The absorbance was measured on a microplate reader (Biotek Epoch, Winooski, Vt., USA) at 570 nm with background correction performed at 690 nm. Data from at least three experiments were analyzed using GraphPad software (version 6, San Diego, Calif., USA). Cell viability was defined as […] compared to untreated controls.

human DA D2 receptors = human DA D2 receptors (Homo sapiens (Human), UniProt P14416); experiment: [35S]GTPγS binding stimulation, human D2 receptors in CHO cells; format: biochemical
Sequence of human DA D2 receptors (P14416 whole entry): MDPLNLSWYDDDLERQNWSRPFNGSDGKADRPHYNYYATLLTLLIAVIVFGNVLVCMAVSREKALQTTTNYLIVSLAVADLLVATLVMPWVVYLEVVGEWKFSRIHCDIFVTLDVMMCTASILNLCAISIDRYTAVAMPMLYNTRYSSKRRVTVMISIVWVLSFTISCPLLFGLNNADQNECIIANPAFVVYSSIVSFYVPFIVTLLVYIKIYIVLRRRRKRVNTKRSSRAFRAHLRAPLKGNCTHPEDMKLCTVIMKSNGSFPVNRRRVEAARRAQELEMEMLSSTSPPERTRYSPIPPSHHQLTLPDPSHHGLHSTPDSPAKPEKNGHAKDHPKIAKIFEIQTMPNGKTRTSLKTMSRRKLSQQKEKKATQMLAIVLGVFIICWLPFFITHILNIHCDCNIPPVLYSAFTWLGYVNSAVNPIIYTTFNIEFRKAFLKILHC

PC12 cells [5] = experiment: DCFDA fluorescence assay of intracellular ROS induced by 6-OHDA; format: cell-based, rat; conditions: 20 μM, 24 h pretreatment, then 75 μM 6-OHDA 1 h
Protocol: Experimental detection of reactive oxygen species (ROS) produced by 6-OHDA was carried out by DCFDA assay. 6-OHDA, a well known neurotoxin, produces oxidative stress similar to what is observed in PD and the mechanism of neurotoxicity of 6-OHDA takes place via its auto-oxidation and subsequent generation of hydrogen peroxide. DCFDA is a non-fluorogenic dye but in the presence of ROS, it is oxidized to produce DCF which produces florescence. We have previously shown that 6-OHDA causes cell death in a dose-dependent manner. We chose 75 μM 6-OHDA as we have shown that this dose induces 40-50% cell death. […] However, the test compounds could dose dependently decrease the production of ROS induced by 6-OHDA (75 μM) in PC12 cells. In this regard, highest dose of all the three compounds was the most efficacious in producing significant antioxidant effect.
PC12 cells (ATCC CRL1721.1, Manassas, Va., USA), a rat adrenal pheochromocytoma cell line, were cultured in T-75 flasks (Greiner Bio One, Frickenhausen, Germany) and maintained in RPMI 1640 medium supplemented with 10% heat inactivated horse serum, 5% fetal bovine sérum, 100 U/ml penicillin, and 100 μg/mL streptomycin at 37° C. in 95% air/5% CO2. […]
PC12 cells were plated at 30,000 cells/well density in 100 μL media in 96-well black plates and incubated at 37° C. under 5% CO2 atmosphere for 24 h. […] After incubation for 1 h, the fluorescence was measured using spectrophotometer fluorescence generated microplate reader (Biotek Epoch, Winooski, Vt., USA) at excitation 497 nm and emission at 527 nm. […] The specific fluorescence emission was calculated after subtraction of the DCFDA untreated control cells from the DCFDA treated cells for both the background and 1 h treatment conditions. This was followed by the division of the 1 h treatment data by the background activity which was determined from vials before treatment with 6-OHDA, to derive the final data point.

cloned rat D3 receptors = cloned rat D3 receptors (Rattus norvegicus (Rat), UniProt P19020); experiment: [3H]spiroperidol competition binding, rat D3 receptors in HEK-293 cells; conditions: rat D3 in HEK-293 cells; values of Table 3
Sequence of cloned rat D3 receptors (P19020 whole entry): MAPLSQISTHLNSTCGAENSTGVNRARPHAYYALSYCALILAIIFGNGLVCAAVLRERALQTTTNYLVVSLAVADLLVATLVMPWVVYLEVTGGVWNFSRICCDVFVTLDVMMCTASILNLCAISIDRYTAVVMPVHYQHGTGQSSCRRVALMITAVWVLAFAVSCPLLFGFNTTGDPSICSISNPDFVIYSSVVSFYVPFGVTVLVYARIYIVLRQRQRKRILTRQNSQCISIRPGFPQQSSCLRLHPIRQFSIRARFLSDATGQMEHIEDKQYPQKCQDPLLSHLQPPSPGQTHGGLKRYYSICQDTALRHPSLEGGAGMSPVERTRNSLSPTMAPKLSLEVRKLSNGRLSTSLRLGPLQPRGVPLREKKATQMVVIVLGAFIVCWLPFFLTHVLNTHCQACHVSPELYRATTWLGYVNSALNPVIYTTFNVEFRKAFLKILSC
Protocol: A well established radioligand competition assay was carried out to evaluate binding affinity of the test compounds and were compared with that of the reference agent (S)-5-OH-DPAT (Table 3). Binding affinity to rat DA D2 and D3 receptors expressed in HEK-293 cells was determined as described by us previously. […] This indicated highest tolerance of the 4-substituted carbazole derivative for interaction with the D2 and D3 receptors.
as §2

[6] = compared with maximum stimulation by full agonist DA

| Structure (SMILES) | decreasing ThT fluorescence, compared to hybrid agonist (α-syn) | reducing toxicities of α-syn aggregates, compared to hybrid agonist (PC12 cells [1]) | duration of locomotor activation ([2]; locomotion monitored for 6 h) | reversal of reserpine-induced akinesia / hypolocomotion (horizontal activity) ([2]; reserpine 5 mg/kg sc, 18 h pretreatment, rats) | cell viability, compound alone (PC12 cells [3]) | pEC50 (human DA D3 receptors; CHO cells, read-out: EC50 (GTPγS), D3) | Emax (human DA D3 receptors; [6]) | pKi (cloned rat D2L receptors) | concentration of greatest protective effect (PC12 cells [4]; 24 h pretreatment, then 75 μM 6-OHDA 24 h) | increase in cell survival compared to 6-OHDA treated alone (PC12 cells [4]; at concentration of greatest protective effect, 75 μM 6-OHDA) | pEC50 (human DA D2 receptors; CHO cells, read-out: EC50 (GTPγS), D2) | Emax (human DA D2 receptors; [6]) | reduction in ROS (PC12 cells [5]) | pKi (cloned rat D3 receptors) |
| --- | --- | --- | --- | --- | --- | --- | --- | --- | --- | --- | --- | --- | --- | --- |
| CCCN(CCC)C1CCc2c(O)cccc2C1 (stereo not shown) [Compound 5-OHDPAT, 5-hydroxy-2-(dipropylamino)tetralin] | far less effective | far less effective |  |  |  |  |  |  |  |  |  |  |  |  |
| CCCN(CCN1CCN(c2cccc3[nH]c4ccccc4c23)CC1)[C@H]1CCc2c(O)cccc2C1 [Compound (−)-95c, (S)-6-((2-(4-(9H-carbazol-4-yl)piperazin-1-yl)ethyl)(propyl)amino)-5,6,7,8-tetra-hydronaphthalen-1-ol] |  |  | significant enhancement of locomotion for the duration of the study of 6 h | significantly reversed akinesia; also recorded: significantly different | no cells loss | 9.66 | 74 to 88% | 7.77 | 20 µM | ~20% | 8.64 | 74 to 88% | 36% | 9.44 |
| CCCN[C@H]1CCc2nc(N)sc2C1 [Pramipexole] | far less effective | far less effective |  |  |  |  |  |  |  |  |  |  |  |  |

Source: patent US10874669B2 (WAYNE STATE UNIVERSITY, priority 2018, dated 2020)
